In patent publication US7964531B2, “3-phenoxy-4-pyridazinol derivatives and herbicidal composition containing the same” (Mitsui Chemicals Agro, Inc., priority 2001, dated 2011):

Key:
[1] = tested on: transplanted paddy-field rice; test: Test Example 4: crop injury against transplanted paddy-field rice; type: in vivo; details: after 25 days
Method: (§1) Paddy filed soil was filled in 1/5000 are Wagner pot, seeds of barnyardgrass (Echinochloa oryzicola Vasing.), Scirpus joncoides and annual broad-leaved weeds (Lindernia spp. and Rotala indica) which are awaken from dormancy were mixed at the surface layer of 1 cm. Also, tubers of Cyperus serotinus, Sagittaria pygmaea and Eleocharis kuroguwai which are awaken from dormancy were planted, and further seedlings of paddy-field rice at 2.2-leaf stage were transplanted and they were grown under the flooded condition in a greenhouse. After 3 days from the transplanting, a predetermined chemical dosage of the wettable powder prepared in accordance with Preparation example 5 was diluted with water, and applied to the pot. After 25 days, herbicidal effects and crop injury against transplanted paddy-field rice were judged according to the following judgment standard, and the results were shown in Table 5. Incidentally, “-” in the table means a composition containing no effective ingredient.
(§2) Judgment Standard • 0: Growth-inhibition rate; 0 to 15% • 1: Growth inhibition rate; 16 to 35% • 2: Growth inhibition rate; 36 to 55% • 3: Growth inhibition rate; 56 to 75% • 4: Growth inhibition rate; […] • 5: Growth inhibition rate; 96 to 100%.

Eleocharis kuroguwai = test: Test Example 4: herbicidal effects of mixed wettable powder, paddy-field pot test; type: in vivo; details: after 25 days
Method: as §1, §2

Scirpus joncoides [2] = test: as above; type: in vivo; details: after 25 days
Method: as §1, §2

Cyperus serotinus [3] = test: as above; type: in vivo; details: after 25 days
Method: as §1, §2

[4] = tested on: barnyardgrass (Echinochloa oryzicola Vasing.); test: as above; type: in vivo; details: after 25 days
Method: as §1, §2

[5] = tested on: annual broad-leaved weeds (Lindernia spp. and Rotala indica); test: as above; type: in vivo; details: after 25 days
Method: as §1, §2

Sagittaria pygmaea = test: as above; type: in vivo; details: after 25 days
Method: as §1, §2

[6] = tested on: annual broad-leaved weeds (Lindernia spp., Rotala indica); test: Test Example 1: herbicidal effects, paddy-field pot test; type: in vivo; details: wettable powder applied 3 days after transplanting, judged after 25 days
Outline: (§3)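 Greenhouse, flooded paddy soil; weeds from seed (top 1 cm), C. serotinus from germinated tubers, rice transplanted at 2.2-leaf stage. WP diluted in water, applied to pot day 3 post-transplant. Scored day 25 post-treatment, 0–5 inhibition scale.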

Scirpus joncoides [7] = test: as above; type: in vivo; details: wettable powder applied 3 days after transplanting, judged after 25 days
Outline: as §3

Cyperus serotinus [8] = test: as above; type: in vivo; details: wettable powder applied 3 days after transplanting, judged after 25 days
Outline: as §3

[9] = tested on: barnyardgrass (Echinochloa oryzicola Vasing.); test: as above; type: in vivo; details: wettable powder applied 3 days after transplanting, judged after 25 days
Outline: as §3

[10] = tested on: transplanted paddy-field rice; test: Test Example 1: crop injury against transplanted paddy-field rice; type: in vivo; details: wettable powder applied 3 days after transplanting, judged after 25 days
Outline: as §3

[11] = derivative 2.5 g/a, no second compound
[12] = derivative 5 g/a, no second compound
[13] = derivative 10 g/a, no second compound

| Structure (SMILES) | Herbicidal effects Broad leaf ([6]; chemical dosage 10 g/a) | Herbicidal effects Broad leaf ([6]; chemical dosage 20 g/a) | Herbicidal effects Scirpus joncoides (Scirpus joncoides [7]; chemical dosage 10 g/a) | Herbicidal effects Scirpus joncoides (Scirpus joncoides [7]; chemical dosage 20 g/a) | Herbicidal effects Cyperus serotinus (Cyperus serotinus [8]; chemical dosage 10 g/a) | Herbicidal effects Cyperus serotinus (Cyperus serotinus [8]; chemical dosage 20 g/a) | Crop injury against transplanted rice [1, 12] | Crop injury against transplanted rice [1, 13] | Herbicidal effects Eleocharis kuroguwai (Eleocharis kuroguwai; [12]) | Herbicidal effects Eleocharis kuroguwai (Eleocharis kuroguwai; [13]) | Herbicidal effects Scirpus joncoides (Scirpus joncoides [2]; [12]) | Herbicidal effects Scirpus joncoides (Scirpus joncoides [2]; [13]) | Herbicidal effects Cyperus serotinus (Cyperus serotinus [3]; [12]) | Herbicidal effects Cyperus serotinus (Cyperus serotinus [3]; [13]) | Herbicidal effects Barnyard grass [4, 12] | Herbicidal effects Barnyard grass [4, 13] | Herbicidal effects Broad leaf [5, 12] | Herbicidal effects Broad leaf [5, 13] | Herbicidal effects Sagittaria pygmaea (Sagittaria pygmaea; [12]) | Herbicidal effects Sagittaria pygmaea (Sagittaria pygmaea; [13]) | other results |
| --- | --- | --- | --- | --- | --- | --- | --- | --- | --- | --- | --- | --- | --- | --- | --- | --- | --- | --- | --- | --- | --- |
| Oc1cc(Cl)nnc1Oc1cccc2ccoc12 [Example 191] | 5 (Growth inhibition rate; 91 to 100%) | 5 (Growth inhibition rate; 91 to 100%) | 5 (Growth inhibition rate; 91 to 100%) | 5 (Growth inhibition rate; 91 to 100%) | 5 (Growth inhibition rate; 91 to 100%) | 5 (Growth inhibition rate; 91 to 100%) | – | – | – | – | – | – | – | – | – | – | – | – | – | – | Crop injury against transplanted rice [1, 11]: 0 (Growth-inhibition rate; 0 to 15%); Herbicidal effects Eleocharis kuroguwai (Eleocharis kuroguwai; [11]): 1 (Growth inhibition rate; 16 to 35%); Herbicidal effects Scirpus joncoides (Scirpus joncoides [2]; [11]): 3 (Growth inhibition rate; 56 to 75%); Herbicidal effects Cyperus serotinus (Cyperus serotinus [3]; [11]): 5 (Growth inhibition rate; 96 to 100%); Herbicidal effects Barnyard grass [4, 11]: 1 (Growth inhibition rate; 16 to 35%); Herbicidal effects Broad leaf [5, 11]: 3 (Growth inhibition rate; 56 to 75%); Herbicidal effects Sagittaria pygmaea (Sagittaria pygmaea; [11]): 2 (Growth inhibition rate; 36 to 55%); Herbicidal effects Barnyard grass ([9]; chemical dosage 10 g/a): 4 (Growth inhibition rate; 71 to 90%); Herbicidal effects Barnyard grass ([9]; chemical dosage 20 g/a): 5 (Growth inhibition rate; 91 to 100%); Crop injury against transplanted rice ([10]; chemical dosage 10 g/a): 2 (Growth inhibition rate; 31 to 50%); Crop injury against transplanted rice ([10]; chemical dosage 20 g/a): 5 (Growth inhibition rate; 91 to 100%) |
| Cc1ccccc1Oc1nnc(Cl)cc1O [Example 1] | – | – | – | – | – | – | 0 (Growth-inhibition rate; 0 to 15%) | 0 (Growth-inhibition rate; 0 to 15%) | 0 (Growth-inhibition rate; 0 to 15%) | 0 (Growth-inhibition rate; 0 to 15%) | 2 (Growth inhibition rate; 36 to 55%) | 4 (Growth inhibition rate; 7.6 to 95%) | 4 (Growth inhibition rate; 7.6 to 95%) | 5 (Growth inhibition rate; 96 to 100%) | 2 (Growth inhibition rate; 36 to 55%) | 4 (Growth inhibition rate; 7.6 to 95%) | 3 (Growth inhibition rate; 56 to 75%) | 4 (Growth inhibition rate; 7.6 to 95%) | 4 (Growth inhibition rate; 7.6 to 95%) | 4 (Growth inhibition rate; 7.6 to 95%) | Herbicidal effects Broad leaf ([6]; chemical dosage 12.5 g/a): 5 (Growth inhibition rate; 91 to 100%); Herbicidal effects Broad leaf ([6]; chemical dosage 25 g/a): 5 (Growth inhibition rate; 91 to 100%); Herbicidal effects Scirpus joncoides (Scirpus joncoides [7]; chemical dosage 12.5 g/a): 5 (Growth inhibition rate; 91 to 100%); Herbicidal effects Scirpus joncoides (Scirpus joncoides [7]; chemical dosage 25 g/a): 5 (Growth inhibition rate; 91 to 100%); Herbicidal effects Cyperus serotinus (Cyperus serotinus [8]; chemical dosage 12.5 g/a): 5 (Growth inhibition rate; 91 to 100%); Herbicidal effects Cyperus serotinus (Cyperus serotinus [8]; chemical dosage 25 g/a): 5 (Growth inhibition rate; 91 to 100%); Herbicidal effects Barnyard grass ([9]; chemical dosage 12.5 g/a): 4 (Growth inhibition rate; 71 to 90%); Herbicidal effects Barnyard grass ([9]; chemical dosage 25 g/a): 5 (Growth inhibition rate; 91 to 100%); Crop injury against transplanted rice ([10]; chemical dosage 12.5 g/a): 0 (Growth inhibition rate; 0 to 10%); Crop injury against transplanted rice ([10]; chemical dosage 25 g/a): 0 (Growth inhibition rate; 0 to 10%) |
| Cc1nn(C)c(OCC(=O)c2ccccc2)c1C(=O)c1ccc(Cl)cc1Cl [Compound B, 2-[4-(2,4-dichlorobenzoyl)-1,3-dimethylpyrazol-5-yloxy]acetophenone, reference compound] | – | – | – | – | – | – | – | – | – | – | – | – | – | – | – | – | – | – | – | – | Crop injury against transplanted rice ([1]; second compound alone 5 g/a): 0 (Growth-inhibition rate; 0 to 15%); Crop injury against transplanted rice ([1]; second compound alone 30 g/a): 0 (Growth-inhibition rate; 0 to 15%); Herbicidal effects Eleocharis kuroguwai (Eleocharis kuroguwai; second compound alone 5 g/a): 0 (Growth-inhibition rate; 0 to 15%); Herbicidal effects Eleocharis kuroguwai (Eleocharis kuroguwai; second compound alone 30 g/a): 2 (Growth inhibition rate; 36 to 55%); Herbicidal effects Scirpus joncoides (Scirpus joncoides [2]; second compound alone 5 g/a): 3 (Growth inhibition rate; 56 to 75%); Herbicidal effects Scirpus joncoides (Scirpus joncoides [2]; second compound alone 30 g/a): 4 (Growth inhibition rate; 7.6 to 95%); Herbicidal effects Cyperus serotinus (Cyperus serotinus [3]; second compound alone 5 g/a): 2 (Growth inhibition rate; 36 to 55%); Herbicidal effects Cyperus serotinus (Cyperus serotinus [3]; second compound alone 30 g/a): 4 (Growth inhibition rate; 7.6 to 95%); Herbicidal effects Barnyard grass ([4]; second compound alone 5 g/a): 3 (Growth inhibition rate; 56 to 75%); Herbicidal effects Barnyard grass ([4]; second compound alone 30 g/a): 5 (Growth inhibition rate; 96 to 100%); Herbicidal effects Broad leaf ([5]; second compound alone 5 g/a): 4 (Growth inhibition rate; 7.6 to 95%); Herbicidal effects Broad leaf ([5]; second compound alone 30 g/a): 5 (Growth inhibition rate; 96 to 100%); Herbicidal effects Sagittaria pygmaea (Sagittaria pygmaea; second compound alone 5 g/a): 4 (Growth inhibition rate; 7.6 to 95%); Herbicidal effects Sagittaria pygmaea (Sagittaria pygmaea; second compound alone 30 g/a): 5 (Growth inhibition rate; 96 to 100%) |
| Oc1cc(Cl)nnc1Oc1ccccc1C1CC1 [Example 6] | 5 (Growth inhibition rate; 91 to 100%) | 5 (Growth inhibition rate; 91 to 100%) | 5 (Growth inhibition rate; 91 to 100%) | 5 (Growth inhibition rate; 91 to 100%) | 5 (Growth inhibition rate; 91 to 100%) | 5 (Growth inhibition rate; 91 to 100%) | 0 (Growth-inhibition rate; 0 to 15%) | 0 (Growth-inhibition rate; 0 to 15%) | 2 (Growth inhibition rate; 36 to 55%) | 3 (Growth inhibition rate; 56 to 75%) | 5 (Growth inhibition rate; 96 to 100%) | 5 (Growth inhibition rate; 96 to 100%) | 5 (Growth inhibition rate; 96 to 100%) | 5 (Growth inhibition rate; 96 to 100%) | 1 (Growth inhibition rate; 16 to 35%) | 2 (Growth inhibition rate; 36 to 55%) | 5 (Growth inhibition rate; 96 to 100%) | 5 (Growth inhibition rate; 96 to 100%) | 5 (Growth inhibition rate; 96 to 100%) | 5 (Growth inhibition rate; 96 to 100%) | Herbicidal effects Barnyard grass ([9]; chemical dosage 10 g/a): 2 (Growth inhibition rate; 31 to 50%); Herbicidal effects Barnyard grass ([9]; chemical dosage 20 g/a): 3 (Growth inhibition rate; 51 to 70%); Crop injury against transplanted rice ([10]; chemical dosage 10 g/a): 0 (Growth inhibition rate; 0 to 10%); Crop injury against transplanted rice ([10]; chemical dosage 20 g/a): 0 (Growth inhibition rate; 0 to 10%) |
| N#CC1CC1c1ccccc1Oc1nnc(Cl)cc1O (stereo not shown) [Compound No. 226, 2-{2-[(6-Chloro-4-hydroxy-3-pyridazinyl)oxy]phenyl}-cyclopropanecarbonitrile] | – | – | – | – | – | – | 0 (Growth-inhibition rate; 0 to 15%) | 0 (Growth-inhibition rate; 0 to 15%) | 1 (Growth inhibition rate; 16 to 35%) | 2 (Growth inhibition rate; 36 to 55%) | 4 (Growth inhibition rate; 7.6 to 95%) | 5 (Growth inhibition rate; 96 to 100%) | 5 (Growth inhibition rate; 96 to 100%) | 5 (Growth inhibition rate; 96 to 100%) | 3 (Growth inhibition rate; 56 to 75%) | 3 (Growth inhibition rate; 56 to 75%) | 5 (Growth inhibition rate; 96 to 100%) | 5 (Growth inhibition rate; 96 to 100%) | 5 (Growth inhibition rate; 96 to 100%) | 5 (Growth inhibition rate; 96 to 100%) | melting point: 203 to 207 °C |
